Experiments:
[1] = tested on: hSERT (S), hNET (N), hDAT (D); experiment: Comparison of binding potency across the three human transporters; conditions: for Potency (rank order of transporter binding): S = hSERT, N = hNET, D = hDAT, order by KD; for Potency Range: highest KD / lowest KD among hSERT, hNET, hDAT
Description: (§1) HEK-293 cells expressing the recombinant hSERT or hDAT were incubated with Dulbecco's modified Eagles medium (MEM) supplemented with 0.1 mM nonessential amino acid solution for MEM, 5% v/v fetal bovine serum and […] penicillin/streptomycin solution. Cells expressing the hNET transporter were incubated with Dulbecco's modified Eagles medium supplemented with 10% v/v fetal bovine serum and 100 U/mL penicillin/streptomycin solution and 2 mM L-glutamine. All cells were grown until 70-80% confluent on 175 cm^2 flasks in a humidified 10% CO2/90% air environment at 37° C., with the selecting antibiotic Geneticin sulfate at […]. The cells were incubated in 10% CO2, 90% air at 37° C. and 100% humidity.
(§2) Cell membranes containing hSERT, hNET, or hDAT were prepared from the cell lines to assay ligand binding for each of the transporters. […] The washed cells were incubated for 5 minutes at 37° C. in 10 mL solution 1 containing 100 mM ethylene glycol-bis N,N,N′,N′-tetraacetic acid (EGTA). The cells were then scraped from the flask surface with a rubber spatula, placed into a centrifuge tube, and collected by centrifugation at 1000×g for 5 minutes at 4° C. The resulting supernatant was discarded, and the cell pellet was resuspended in 0.5 to1.0 mL of the appropriate binding buffer (described below). The resuspended cell pellet was homogenized using a Polytron for 10 seconds at setting 6. The resulting homogenate was centrifuged at about 36,000×g for 10 minutes at 4° C. The supernatant was discarded, and the pellet was resuspended in the same volume of the appropriate binding buffer and centrifuged again. The supernatant was discarded, and the final pellet containing cell membranes was resuspended in the appropriate binding buffer and stored at −80° C. until use.
(§3) Radioligand binding assays for the indicated transporters were performed as follows. To assess binding to the cloned hSERT, cells expressing hSERT were homogenized in 50 mM Tris-HCl with 120 mM NaCl and 5 mM KCl (pH 7.4). The binding reaction consisted of 10 μg cell membrane protein, 1.0 nM [^3H]citalopram (citalopram, [N-methyl-^3H], specific activity 79.0 Ci/mmol; PerkinElmer, Boston, Mass.), and varying concentrations of either unlabeled citalopram or the test compound. A reaction to determine non-specific binding consisted of 10 μg cell membrane protein, 0.5 nM [^3H]citalopram, and 1 μM final concentration of unlabeled citalopram. The reactions were incubated at 22° C. for 60 minutes. Following incubation, the reactions were terminated by rapid filtration through separate GF/B filter strips pretreated with 0.2% polyethylenimine in a 48-well Brandel cell harvester. The cell membrane-containing filter strips were then rinsed five times with ice-cold 0.9% NaCl. After rinsing, individual filters were cut from the strip and placed in a scintillation vial containing 6.5 mL of Redi-Safe (Beckman-Coulter, Fullerton, Calif.). Radioactivity was measured with a Beckman liquid scintillation counter (LS 6000TA).
(§4) To assess binding to the cloned hNET, cells expressing hNET were homogenized in 50 mM Tris-HCl with 300 mM NaCl and 5 mM KCl (pH 7.4). The binding reaction consisted of 5 μg cell membrane protein, 0.5 nM [^3H]nisoxetine (nisoxetine HCl, [N-methyl-^3H], specific activity 82.0 Ci/mmol; Amersham, Arlington Hts., Ill.), and varying concentrations of either unlabeled nisoxetine or the test compound. A reaction to determine non-specific binding consisted of 5 μg cell membrane protein, 0.5 nM [^3H]nisoxetine, and 1 μM final concentration of unlabeled nisoxetine. The reactions were incubated at 22° C. for 60 minutes. Following incubation, the reactions were terminated by rapid filtration through separate GF/B filter strips pretreated with 0.2% polyethylenimine in a 48-well Brandel cell harvester. The cell membrane-containing filter strips were then rinsed five times with ice-cold 0.9% NaCl.

[2] = biological target: T1, human serotonin transporter (hSERT) (Homo sapiens, UniProt P31645); experiment: Human transporter radioligand binding, hSERT ([3H]citalopram, HEK-293 membranes); conditions: HCl salts of test compounds; n ≥ 3, values marked b n = 1; read-out: Equilibrium Dissociation Constant (KD) for Transporter Binding (Geometric Mean; nM ± SEM) hSERT (S)
T1 construct: expressed in transfected cells; host or cells: HEK-293, stably transfected; membranes
T1 sequence (P31645 whole entry): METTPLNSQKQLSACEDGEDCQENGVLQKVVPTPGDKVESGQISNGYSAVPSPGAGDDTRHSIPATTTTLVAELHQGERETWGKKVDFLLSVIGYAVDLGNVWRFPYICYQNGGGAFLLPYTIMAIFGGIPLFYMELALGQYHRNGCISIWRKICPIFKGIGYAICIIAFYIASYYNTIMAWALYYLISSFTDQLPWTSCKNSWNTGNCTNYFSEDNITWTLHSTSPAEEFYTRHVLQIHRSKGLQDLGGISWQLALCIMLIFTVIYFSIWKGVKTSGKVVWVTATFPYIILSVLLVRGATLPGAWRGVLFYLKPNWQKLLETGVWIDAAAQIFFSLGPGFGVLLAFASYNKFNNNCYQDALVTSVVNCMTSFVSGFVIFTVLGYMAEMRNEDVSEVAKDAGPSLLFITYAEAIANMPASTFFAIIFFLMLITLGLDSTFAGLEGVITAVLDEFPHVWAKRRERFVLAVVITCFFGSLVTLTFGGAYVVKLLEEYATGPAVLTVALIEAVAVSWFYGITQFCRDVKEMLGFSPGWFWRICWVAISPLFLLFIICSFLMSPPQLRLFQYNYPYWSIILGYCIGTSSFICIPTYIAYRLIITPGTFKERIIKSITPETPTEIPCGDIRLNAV
Description: as §1, §2, §3
(§5) Following the radioligand binding assays, the data were analyzed using the
(§6) The program was modified to calculate the Hill coefficient (nH). Data are presented as geometric mean±S.E.M. of at least three independent experiments. One-component models and two-component models were compared using the root mean square error of each fit and the F test.

[3] = biological target: T2, human norepinephrine transporter (hNET) (Homo sapiens, UniProt P23975); experiment: Human transporter radioligand binding, hNET ([3H]nisoxetine, HEK-293 membranes); conditions: HCl salts of test compounds; n ≥ 3, values marked b n = 1; read-out: Equilibrium Dissociation Constant (KD) for Transporter Binding (Geometric Mean; nM ± SEM) hNET (N)
T2 construct: expressed in transfected cells; host or cells: HEK-293, stably transfected; membranes
T2 sequence (P23975 whole entry): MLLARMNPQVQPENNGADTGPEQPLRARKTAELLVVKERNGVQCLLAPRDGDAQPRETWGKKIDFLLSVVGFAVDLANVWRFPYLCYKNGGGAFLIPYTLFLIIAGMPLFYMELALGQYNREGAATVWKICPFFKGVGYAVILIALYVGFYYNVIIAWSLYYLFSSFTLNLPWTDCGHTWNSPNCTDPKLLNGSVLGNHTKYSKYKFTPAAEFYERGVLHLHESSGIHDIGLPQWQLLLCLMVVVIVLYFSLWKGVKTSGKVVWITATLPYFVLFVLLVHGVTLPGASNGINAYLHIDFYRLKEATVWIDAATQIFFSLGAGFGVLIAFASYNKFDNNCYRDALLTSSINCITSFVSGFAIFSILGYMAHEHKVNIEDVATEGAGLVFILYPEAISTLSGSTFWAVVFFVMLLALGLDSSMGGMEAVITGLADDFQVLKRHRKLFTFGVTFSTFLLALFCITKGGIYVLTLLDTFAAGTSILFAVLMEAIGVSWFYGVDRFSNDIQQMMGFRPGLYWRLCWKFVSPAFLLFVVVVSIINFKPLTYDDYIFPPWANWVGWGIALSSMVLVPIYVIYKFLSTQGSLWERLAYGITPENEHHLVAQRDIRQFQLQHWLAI
Description: as §1, §2
as §4, with “NaCl. After rinsing, individual filters were cut from the strip and placed in a scintillation vial containing 6.5 mL of Redi-Safe (Beckman-Coulter, Fullerton, Calif.). Radioactivity was measured with a Beckman liquid scintillation counter (LS 6000TA).” for “NaCl.”
as §5, §6

[4] = biological target: T3, human dopamine transporter (hDAT) (Homo sapiens, UniProt Q01959); experiment: Human transporter radioligand binding, hDAT ([3H]WIN35428, HEK-293 membranes); conditions: HCl salts of test compounds; n ≥ 3, values marked b n = 1; read-out: Equilibrium Dissociation Constant (KD) for Transporter Binding (Geometric Mean; nM ± SEM) hDAT (D)
T3 construct: expressed in transfected cells; host or cells: HEK-293, stably transfected; membranes
T3 sequence (Q01959 whole entry): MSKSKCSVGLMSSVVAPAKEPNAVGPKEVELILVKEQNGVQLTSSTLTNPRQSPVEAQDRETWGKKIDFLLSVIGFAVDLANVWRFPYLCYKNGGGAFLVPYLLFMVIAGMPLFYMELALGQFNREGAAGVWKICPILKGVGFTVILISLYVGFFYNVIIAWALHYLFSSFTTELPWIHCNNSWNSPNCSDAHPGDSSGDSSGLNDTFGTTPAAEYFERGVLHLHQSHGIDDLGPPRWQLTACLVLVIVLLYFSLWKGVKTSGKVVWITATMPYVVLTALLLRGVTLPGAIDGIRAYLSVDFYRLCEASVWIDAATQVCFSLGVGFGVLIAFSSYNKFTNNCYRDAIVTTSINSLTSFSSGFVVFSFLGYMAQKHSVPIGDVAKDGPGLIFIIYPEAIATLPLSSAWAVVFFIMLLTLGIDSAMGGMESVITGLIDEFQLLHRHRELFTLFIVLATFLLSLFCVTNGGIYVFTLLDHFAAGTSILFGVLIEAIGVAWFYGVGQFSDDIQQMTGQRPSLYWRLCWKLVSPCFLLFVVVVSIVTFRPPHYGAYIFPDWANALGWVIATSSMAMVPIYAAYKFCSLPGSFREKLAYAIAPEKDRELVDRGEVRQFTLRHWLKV
Description: as §1, §2
To assess binding to the cloned hDAT, cells expressing hDAT were homogenized in 50 mM Tris-HCl with 120 mM NaCl (pH 7.4). The binding reaction contained 15 μg cell membrane protein, 1 nM [^3H]WIN35428 (WIN35428, [N-methyl-^3H], specific activity 85.9 Ci/mmol; PerkinElmer, Boston, Mass.), and varying concentrations of either unlabeled WIN35428 or the test compound. A reaction to determine non-specific binding contained 15 μg cell membrane protein, 1 nM [^3H]WIN35428, and 10 μM final concentration of unlabeled WIN35428. The reactions were incubated at 22° C. for 1 hour. Following incubation, the reactions were terminated by rapid filtration through separate GF/B filter strips pretreated with 0.2% polyethylenimine in a 48-well Brandel cell harvester. The cell membrane-containing filter strips were then rinsed five times with ice-cold 0.9% NaCl. After rinsing, individual filters were cut from the strip and placed in a scintillation vial containing 6.5 mL of Redi-Safe (Beckman-Coulter, Fullerton, Calif.). Radioactivity was measured with a Beckman liquid scintillation counter (LS 6000TA).
as §5, §6

Potency (rank order of transporter binding) [1]	Kd [2]	Kd [3]	Kd [4]	Potency Range [1]	Compound
S > N > D	27 ± 4 nM	49 ± 4 nM	250 ± 40 nM	9	CNC[C@H](c1ccc2ccccc2c1)[C@@H](O)c1ccc(F)cc1 [MCJ001-4F—Ph—OH-RS/SR, (1R,2S)-1-(4-fluorophenyl)-3-(methylamino)-2-(naphthalen-2-yl)propan-1-ol]
N > S > D	33 ± 5 nM	11 ± 1 nM	90 ± 10 nM	8	CNC[C@H](c1ccc2ccccc2c1)[C@H](O)c1ccc(F)cc1 [MCJ001-4F—Ph—OH-SS/RR, (1S,2S)-1-(4-fluorophenyl)-3-(methylamino)-2-(naphthalen-2-yl)propan-1-ol]
D > S > N	3320 nM	4500 nM	1520 nM	3	CNCC(c1ccccc1)C(O)c1ccc(Br)cc1 [MCJ001-Br—Ph—OH-RS/SR, (1R,2S/1S,2R)-1-(4-bromophenyl)-3-(methylamino)-2-phenylpropan-1-ol]
–	7300 nM	–	28400 nM	–	CNCC(c1ccccc1)C(O)c1ccc(Br)cc1 [MCJ001-Br—Ph—OH-SS/RR, (1S,2S/1R,2R)-1-(4-bromophenyl)-3-(methylamino)-2-phenylpropan-1-ol]
N > S > D	50 ± 3 nM	29 ± 1 nM	180 ± 20 nM	6	CNC[C@H](c1ccc2ccccc2c1)[C@@H](OCCCCCCCO[C@@H](c1ccccc1)[C@H](CNC)c1ccc2ccccc2c1)c1ccccc1 [MCJ001-Dimer7-SS, (2S,2′S,3R,3′R)-3,3′-(heptane-1,7-diylbis(oxy))bis(N-methyl-2-(naphthalen-2-yl)-3-phenylpropan-1-amine)]
N > S > D	11900 nM	2660 nM	75200 nM	28	CNC[C@H](c1ccccc1)[C@@H](O)c1ccc(F)cc1 [MCJ001-F—Ph—OH-RS/SR, (1R,2S)-1-(4-fluorophenyl)-3-(methylamino)-2-phenylpropan-1-ol]
D > N > S	1260 nM	514 nM	107 nM	12	CNC[C@H](c1ccccc1)[C@H](O)c1ccc(F)cc1 [MCJ001-F—Ph—OH-SS/RR, (1S,2S)-1-(4-fluorophenyl)-3-(methylamino)-2-phenylpropan-1-ol]
S > N > D	7.4 ± 0.9 nM	90 ± 10 nM	390 ± 30 nM	53	CN(C)C[C@H](c1ccc2ccccc2c1)[C@@H](Cl)c1ccccc1 [MCJ002-Cl-RS, (2S,3R)-3-chloro-N,N-dimethyl-2-(naphthalen-2-yl)-3-phenylpropan-1-amine]
S > N > D	8.3 ± 0.9 nM	50 ± 8 nM	270 ± 30 nM	32	CN(C)C[C@H](c1ccc2ccccc2c1)[C@H](Cl)c1ccccc1 [MCJ002-Cl-SS, (2S,3S)-3-chloro-N,N-dimethyl-2-(naphthalen-2-yl)-3-phenylpropan-1-amine]
S > N > D	7 ± 0.5 nM	45 ± 3 nM	280 ± 20 nM	40	CN(C)C[C@H](c1ccc2ccccc2c1)[C@@H](F)c1ccccc1 [MCJ002-F-RS, (2S,3R)-3-fluoro-N,N-dimethyl-2-(naphthalen-2-yl)-3-phenylpropan-1-amine]

Compound	Potency (rank order of transporter binding) [1]	Kd [2]	Kd [3]	Kd [4]	Potency Range [1]
CNCC[C@H](Oc1cccc2ccccc12)c1cccs1 [Duloxetine, reference compound]	S > N > D	–	–	–	–
CN(C)CCCN1c2ccccc2CCc2ccccc21 [Imipramine, reference compound]	S > N > D	–	–	–	–
CNC[C@H](c1ccccc1)[C@@H](O)c1ccc2ccccc2c1 [MCJ001-NA-Ph—OH-RS/SR, (1R,2S/1S,2R)-3-(methylamino)-1-(naphthalen-2-yl)-2-phenylpropan-1-ol]	S > N > D	75 ± 2 nM	7620 nM	8900 ± 20 nM	120
CNC[C@@H](c1ccccc1)[C@@H](O)c1ccc2ccccc2c1 [MCJ001-NA-Ph—OH-SS/RR, (1S,1R/2S,2R)-3-(methylamino)-1-(naphthalen-2-yl)-2-phenylpropan-1-ol]	S > > N > D	16 ± 2 nM	1390 nM	5800 ± 400 nM	370
CCN(CC)C(=O)C1(c2ccccc2)CC1CN (stereo not shown) [Milnacipran, reference compound]	S > N > D	–	–	–	–
CN1Cc2c(N)cccc2C(c2ccccc2)C1 (stereo not shown) [Nomifensine, reference compound]	N > D > S	–	–	–	–
CNC[C@H](c1ccc2ccccc2c1)[C@H](O)c1ccccc1 [PRC200-SS, (1S,2S)-3-(methylamino)-2-(naphthalen-2-yl)-1-phenylpropan-1-ol]	N > S > D	3.8 ± 0.3 nM	0.6 ± 0.2 nM	27 ± 3 nM	45
CCOc1ccccc1OC(c1ccccc1)C1CNCCO1 (stereo not shown) [Reboxetine, reference compound]	N > S > D	–	–	–	–

Source: patent US20120220665A1, “Inhibiting Neurotransmitter Reuptake” (MAYO FOUNDATION FOR MEDICAL EDUCATION AND RESEARCH, priority 2009, published 2012)
